The nature of this data set: Solubility in a mixture of water and glycerol. It counts as physicochemical. Particulars: experimental studies, no figures given.

Regarding `O=C(C1CCCCC1)N1CC(=O)N2CCc3ccccc3C2C1` (racemic) [praziquantel, (RS)-2-(Cyclohexylcarbonyl)-2,3,4,6,7,11b-hexahydro-1H-pyrazino[2,1-a]isochinoline-4-on], the “solubility in a mixture of water and glycerol” value is “high solubility”.

The values above are taken from patent US20230107039A1, “SOFT CHEWABLE FORMED BODY FOR THE ADMINISTRATION TO ANIMALS” (Bayer Animal Health GmbH, priority 2020, published 2023).
